Data taken from US6015790A, “Methods and compositions for treating rheumatoid arthritis” (BASF Aktiengesellschaft, priority 1997, dated 2000).

Tests used:
[1] = system: collagen induced arthritis in DBA-1 mice; assay: Collagen induced arthritis, prophylactic model (mean arthritic score); assay type: in vivo; settings: 5 mg/kg/day intraperitoneally, day 26 to day 35 post immunization
[2] = system: collagen induced arthritis in DBA-1 mice; assay: Collagen induced arthritis, therapeutic model (mean arthritic score, histopathology); assay type: in vivo; settings: 5 mg/kg/day intraperitoneally, 21 days from day 48, necropsy day 71, vs vehicle
[3] = system: National Cancer Institute's P388 lymphocytic leukemia cell line; settings: cited from earlier work

Molecule	signs of rheumatoid arthritis after end of treatment (mean arthritic score) [1]	cartilage involvement (cartilage damage, histopathology, scale 0-3) [2]	synovitis (synovial inflammation, histopathology, scale 0-3) [2]	inhibition of cell growth [3]
C[C@@H]1C[C@H]2[C@@H]3CCC4=CC(=O)C=C[C@]4(C)[C@@]3(F)[C@@H](O)C[C@]2(C)[C@@]1(O)C(=O)CO [dexamethasone]	exhibited signs of rheumatoid arthritis immediately following the end of treatment	significantly suppressed	significantly suppressed	
Dolastatin-15				markedly inhibits the growth
